{"source": "paper PMC12645137", "about": "(Current Neuropharmacology, 2025)", "key": {"[1]": {"molecular_target": "T1, AChE (source Electric eel) (Electrophorus electricus, UniProt O42275)", "T1 construct": "from tissue", "T1 sequence (O42275 24-633)": "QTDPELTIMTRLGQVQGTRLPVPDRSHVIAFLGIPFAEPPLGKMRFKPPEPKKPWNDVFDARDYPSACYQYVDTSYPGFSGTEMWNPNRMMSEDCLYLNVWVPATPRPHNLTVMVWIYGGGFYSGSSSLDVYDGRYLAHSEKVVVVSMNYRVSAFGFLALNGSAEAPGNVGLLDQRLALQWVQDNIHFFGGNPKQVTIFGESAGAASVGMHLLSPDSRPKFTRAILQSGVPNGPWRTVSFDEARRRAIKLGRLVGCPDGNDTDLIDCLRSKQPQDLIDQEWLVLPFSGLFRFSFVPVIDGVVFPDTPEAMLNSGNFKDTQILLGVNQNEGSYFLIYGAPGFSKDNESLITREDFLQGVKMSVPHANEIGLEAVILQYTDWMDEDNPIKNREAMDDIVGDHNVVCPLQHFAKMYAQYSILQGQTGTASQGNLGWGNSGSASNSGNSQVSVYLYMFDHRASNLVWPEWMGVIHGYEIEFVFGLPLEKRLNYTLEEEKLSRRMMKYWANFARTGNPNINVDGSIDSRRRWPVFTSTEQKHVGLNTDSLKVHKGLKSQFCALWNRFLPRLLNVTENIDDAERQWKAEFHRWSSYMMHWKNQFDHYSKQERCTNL", "test": "biochemical", "procedure": "(§1) The cholinesterase inhibitory potentials of our synthesized compounds were evaluated against cholinesterase enzymes (AChE/BChE). The AChE (source Electric eel) and BChE (source equine serum) were used in the study following previously published Ellman's assay. The assay basic principle involves the hydrolytic breakdown of acetylthiocholine iodide (ATChI) by AChE and butyryl thiocholine iodide (BTChI) by BChE enzymes, leading to the formation of an intermediate compound which is subsequently complexed with 5,5-dithio bis nitrobenzoic acid (DTNB) to form a UV-detectable compound. The yellowish color product indicates the hydrolysis of ATChI and BTChI substrates by respective enzymes, which were analyzed at 412 nm using a UV-visible spectrophotometer. […] A test sample of 1000 µl was taken in a cuvette, to which enzyme solution (50 µl) and DTNB reagent of 50 µL were added. The AChE (0.03 U/ml) and BChE (0.01 U/ml) solutions were prepared in 0.1 M phosphate buffer having pH 8.0. The ATChI and BTChI substrate solutions (0.0005 M) and 0.0002273 M solution of DTNB were prepared using distilled water and stored at 8°C before further use. For 15 minutes, the solution mixture was incubated at 30 °C, after which a solution of the substrate (50 µl) was added and then subjected to spectroscopic analysis. Using a double beam spectrophotometer, the sample absorbance was measured for 4 minutes at 412 nm beside the time of reaction. […] All values were taken in triplicate under the same conditions.\n(§2) Enzymatic activity percentage=V/Vmaxx100\n(§3) V is the reaction rate in the inhibitor's presence, whereas Vmax is the reaction rate in the absence of the inhibitor."}, "[2]": {"molecular_target": "T2, BChE (source equine serum) (Equus caballus, UniProt P81908)", "T2 construct": "from tissue; host or cells: equine serum", "T2 sequence (P81908 whole entry)": "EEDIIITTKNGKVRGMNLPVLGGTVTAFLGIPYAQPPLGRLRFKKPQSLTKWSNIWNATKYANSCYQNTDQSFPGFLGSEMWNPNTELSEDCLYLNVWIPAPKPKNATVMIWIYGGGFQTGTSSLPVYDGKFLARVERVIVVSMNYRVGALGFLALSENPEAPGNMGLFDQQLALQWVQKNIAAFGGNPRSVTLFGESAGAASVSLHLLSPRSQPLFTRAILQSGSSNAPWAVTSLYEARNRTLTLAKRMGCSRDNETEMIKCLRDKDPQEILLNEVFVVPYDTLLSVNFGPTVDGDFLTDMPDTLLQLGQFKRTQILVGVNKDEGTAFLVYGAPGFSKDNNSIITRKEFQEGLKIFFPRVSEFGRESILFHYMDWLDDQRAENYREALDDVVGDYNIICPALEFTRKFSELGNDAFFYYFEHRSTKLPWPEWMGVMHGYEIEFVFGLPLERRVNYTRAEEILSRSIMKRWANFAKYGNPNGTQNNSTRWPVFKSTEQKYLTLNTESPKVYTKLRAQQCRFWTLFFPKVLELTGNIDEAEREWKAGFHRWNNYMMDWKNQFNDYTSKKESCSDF", "test": "biochemical", "settings": "for inhibition at 62.5 µg/mL / inhibition at 125 µg/mL / inhibition at 250 µg/mL / inhibition at 500 µg/mL / inhibition at 1000 µg/mL: read-out: % BChE Inhibition", "procedure": "as §1, §2, §3"}, "DPPH antioxidant assay": {"test": "DPPH antioxidant assay", "format": "physicochemical", "settings": "for % Inhibition (DPPH free radicals): mean ± SEM", "procedure": "To evaluate the in-vitro antioxidant potential of the synthesized derivatives, a previously reported 1,1 Diphenyl, 2 Picrylhydrazyl (DPPH) assay was utilized. The DPPH solution was prepared by dissolving twenty-four mg DPPH in methanol (100 ml). Test sample solutions in various concentrations (62.50 to 1000 μg/mL) were also prepared. From each dilution, 1 ml sample solution was taken to which 1 ml solution of DPPH was added. The solution mixture was incubated at 23°C for 30 minutes in the dark and then subjected to a UV-visible spectrophotometer to note the absorbance at 517 nm. The absorbance values of all samples were taken in triplicate. Ascorbic acid served as positive control, while negative control only contained a solution of DPPH having no test samples. The % free radical scavenging potential of our compounds was determined by the given formula.\n% free radical scavenging activity = [drawing 2] x100\nX is the control absorbance, whereas X1 is the absorbance of the test sample."}, "[3]": {"test_system": "scopolamine-induced amnesic mice", "test": "Y-Maze test in scopolamine-induced amnesic animals", "format": "in vivo, albino mice", "settings": "scopolamine 1 mg/kg amnesic mice; i.p.; AN-1 10 mg/kg, progesterone 10 mg/kg, galantamine 8 mg/kg; disease group 22.27%", "procedure": "(§4) The mice were divided into the following five groups, and each group had six animals. The standard drug and test samples were carefully administered to the mice via the intraperitoneal route.\n(§5) Group IV (Progesterone treated group) = Animals treated with 10 mg/kg progesterone and scopolamine 1 mg/kg.\n(§6) Group V (Test compound group) = Animals received 10 mg/kg progesterone derivative (AN-1) and 1 mg/kg scopolamine.\nTo determine the effect of synthesized compounds on short-term learning and memory of experimental mice, a Y-Maze test was used. The Y-Maze apparatus consists of three arms that are fixed at 120° angle from each other and have 30 cm length, 20 cm height, and 8 cm width dimensions. After 30 minutes of giving test compounds intraperitoneally, the mouse was positioned at the arm end in such a way that it faced away from the midpoint of the apparatus and was permitted to search the apparatus for five minutes freely. The arm entry sequence and number by each mouse were recorded for 5 minutes using a digital camera. Alternation is defined as the successive entry into 3 dissimilar arms by a mouse (i.e., CBA, BCA, ABC). When the back paws of a mouse were found inside an arm wholly, the arm entry was considered completed. Seventy percent v/v ethanol was used for cleaning the apparatus and to avoid smell cues. The spontaneous alternation performance (SAP) percentage was calculated using the following formula [37]:\n% alternation = [(alternations number) / (total arm entries number – 2)] × 100"}, "[4]": {"test_system": "scopolamine-induced amnesic mice", "test": "Open field test (OFT) in scopolamine-induced amnesic animals", "format": "in vivo, albino mice", "settings": "i.p., AN-1 10 mg/kg, progesterone 10 mg/kg, galantamine 8 mg/kg; for number of lines crossed: 5 min, disease group 26.33; for number of lines crossed / time spent in the central area: scopolamine 1 mg/kg amnesic mice; for time spent in the central area: 30 min exploration, disease group 4.66; for time spent in the peripheral area: versus scopolamine/disease group", "procedure": "as §4, §5, §6\nOpen field behavioral test was carried out for the assessment of locomotor activities like the number of line crossing. The apparatus was made from plywood having 81×81×28.5 cm dimensions. Sixteen squares (20×20 cm) were made on the base of the apparatus by drawing four horizontal and four vertical lines. […] Furthermore, exploration time spent by mice in central and peripheral areas of the apparatus was also recorded by allowing the mice for 30 minutes to explore the apparatus."}, "[5]": {"test_system": "scopolamine-induced amnesic mice", "test": "Elevated Plus Maze (EPM) test in scopolamine-induced amnesic animals", "format": "in vivo, albino mice", "settings": "scopolamine 1 mg/kg amnesic mice, i.p., AN-1 10 mg/kg, progesterone 10 mg/kg, galantamine 8 mg/kg; for retention transfer latency (RTL): 24 h after training, disease group 67 sec; for initial transfer latency (ITL): disease group 73 sec", "procedure": "as §4, §5, §6\nThe EPM behavioral test was performed to assess the learning abilities and long-term spatial memory of the experimental animals. The EPM apparatus has the appearance of a plus sign which was 50 cm elevated from the ground. The apparatus has two open arms (50 cm long and 10 cm wide), and two closed arms having dimensions of 20, 50, and 10 cm in height, length, and width, respectively. The open and closed arms were joined with a 10 × 10 central square.\nAfter 30 minutes of the intraperitoneal drug administration on the seventh day of treatment, mice of each group were placed over the open arm end of the EPM apparatus in such a way that their faces were away from the midpoint of the apparatus. Transfer latency (TL) is the time a mouse takes to enter the closed arm entirely with all its legs from the open arm of the apparatus. The time of initial transfer latency (ITL) was observed, and then the animals were allowed freely for 1.5 minutes to search the EPM apparatus.\nAfter twenty-four hours of the training period, test trials were conducted to determine the retention of tasks that were learnt during training. Retention transfer latency (RTL) was measured by placing the experimental mice at the open end of the apparatus, ensuring that they faced away from its midpoint. The mouse was allowed to enter the closed arm entirely with all its legs. A decline in TL compared to ITL indicated an improvement in memory."}}}
{"smiles": "C/C(=N/Cc1ccccc1)[C@H]1CC[C@H]2[C@@H]3CCC4=CC(=O)CC[C@]4(C)[C@H]3CC[C@]12C", "note": "[AN5, (8S,9S,10R,13S,14S)-17-((Z)-1-(benzylimino)ethyl)-10,13-dimethyl-1,2,6,7,8,9,10,11, 12,13,14,15,16,17-tetradecahydro-3H cyclopenta[a]phenan-thren-3-one]", "values": [{"measurement": "IC50", "setting": "[1]", "value": 156, "unit": "µM"}, {"measurement": "inhibition at 62.5 µg/mL", "setting": "[1]; read-out: % AChE Inhibition", "value": 50.4, "unit": "%"}, {"measurement": "inhibition at 125 µg/mL", "setting": "[1]; read-out: % AChE Inhibition", "value": 59.7, "unit": "%"}, {"measurement": "inhibition at 250 µg/mL", "setting": "[1]; read-out: % AChE Inhibition", "value": 65.2, "unit": "%"}, {"measurement": "inhibition at 500 µg/mL", "setting": "[1]; read-out: % AChE Inhibition", "value": 77.3, "unit": "%"}, {"measurement": "inhibition at 1000 µg/mL", "setting": "[1]; read-out: % AChE Inhibition", "value": "83.5 ± 2.31", "unit": "%"}, {"measurement": "IC50", "setting": "[2]", "value": 63, "unit": "µM"}, {"measurement": "inhibition at 62.5 µg/mL", "setting": "[2]", "value": 58.1, "unit": "%"}, {"measurement": "inhibition at 125 µg/mL", "setting": "[2]", "value": 65.9, "unit": "%"}, {"measurement": "inhibition at 250 µg/mL", "setting": "[2]", "value": 71.4, "unit": "%"}, {"measurement": "inhibition at 500 µg/mL", "setting": "[2]", "value": 75.8, "unit": "%"}, {"measurement": "inhibition at 1000 µg/mL", "setting": "[2]", "value": "85.5 ± 2.83", "unit": "%"}, {"measurement": "IC50", "setting": "DPPH antioxidant assay", "value": 110, "unit": "µM"}, {"measurement": "% Inhibition (DPPH free radicals)", "setting": "DPPH antioxidant assay; 62.5 µg/ml", "value": "52.18 ± 1.42", "unit": "%"}, {"measurement": "% Inhibition (DPPH free radicals)", "setting": "DPPH antioxidant assay; 125 µg/ml", "value": "56.99 ± 2.50", "unit": "%"}, {"measurement": "% Inhibition (DPPH free radicals)", "setting": "DPPH antioxidant assay; 250 µg/ml", "value": "65.46 ± 1.83", "unit": "%"}, {"measurement": "% Inhibition (DPPH free radicals)", "setting": "DPPH antioxidant assay; 500 µg/ml", "value": "67.51 ± 2.56", "unit": "%"}, {"measurement": "% Inhibition (DPPH free radicals)", "setting": "DPPH antioxidant assay; 1000 µg/ml", "value": "73.12 ± 1.04", "unit": "%"}]}
{"smiles": "O=C1O[C@H]([C@@H](O)CO)C(O)=C1O", "note": "[Ascorbic Acid, Ascorbic acid, reference compound]", "values": [{"measurement": "IC50", "setting": "DPPH antioxidant assay", "value": 54.1, "unit": "µM"}, {"measurement": "% Inhibition (DPPH free radicals)", "setting": "DPPH antioxidant assay; 62.5 µg/ml", "value": "67.69 ± 2.18", "unit": "%"}, {"measurement": "% Inhibition (DPPH free radicals)", "setting": "DPPH antioxidant assay; 125 µg/ml", "value": "71.25 ± 4.29", "unit": "%"}, {"measurement": "% Inhibition (DPPH free radicals)", "setting": "DPPH antioxidant assay; 250 µg/ml", "value": "74.50 ± 3.04", "unit": "%"}, {"measurement": "% Inhibition (DPPH free radicals)", "setting": "DPPH antioxidant assay; 500 µg/ml", "value": "86.00 ± 0.70", "unit": "%"}, {"measurement": "% Inhibition (DPPH free radicals)", "setting": "DPPH antioxidant assay; 1000 µg/ml", "value": "91.17 ± 1.62", "unit": "%"}]}
{"smiles": "COc1ccc2c3c1O[C@H]1C[C@@H](O)C=C[C@@]31CCN(C)C2", "note": "[Galantamine, reference compound]", "values": [{"measurement": "inhibition at 62.5 µg/mL", "setting": "[2]", "value": 67.2, "unit": "%"}, {"measurement": "inhibition at 125 µg/mL", "setting": "[2]", "value": 72.9, "unit": "%"}, {"measurement": "inhibition at 250 µg/mL", "setting": "[2]", "value": 77.4, "unit": "%"}, {"measurement": "inhibition at 500 µg/mL", "setting": "[2]", "value": 84.4, "unit": "%"}, {"measurement": "inhibition at 1000 µg/mL", "setting": "[2]", "value": "89.5 ± 1.93", "unit": "%"}, {"measurement": "spontaneous alternation", "setting": "[3]", "value": 47.56, "unit": "%"}, {"measurement": "number of lines crossed", "setting": "[4]", "value": 50.33}, {"measurement": "time spent in the central area", "setting": "[4]", "value": 13, "unit": "mint"}, {"measurement": "time spent in the peripheral area", "setting": "[4]", "value": "significantly (p<0.01) less time in the peripheral area"}, {"measurement": "retention transfer latency (RTL)", "setting": "[5]", "value": 38.33, "unit": "s"}, {"measurement": "initial transfer latency (ITL)", "setting": "[5]", "value": 47.33, "unit": "s"}]}
{"smiles": "CC(=O)[C@H]1CC[C@H]2[C@@H]3CCC4=CC(=O)CC[C@]4(C)[C@H]3CC[C@]12C", "note": "[progesterone]", "values": [{"measurement": "spontaneous alternation", "setting": "[3]", "value": 40.001, "unit": "%"}, {"measurement": "number of lines crossed", "setting": "[4]", "value": 42}, {"measurement": "time spent in the central area", "setting": "[4]", "value": 9.66, "unit": "mint"}, {"measurement": "time spent in the peripheral area", "setting": "[4]", "value": "significant (p˂0.05) decline in time spent peripherally"}, {"measurement": "retention transfer latency (RTL)", "setting": "[5]", "value": 50.33, "unit": "s"}, {"measurement": "initial transfer latency (ITL)", "setting": "[5]", "value": 56.5, "unit": "s"}]}
